We go through four compounds from US20230235277A1, “3D Tissue Culture Materials and Processes for Producing Same” (INSPHERO AG, priority 2014, published 2023).

Experiment [1] concerns human liver microtissues. The experiment in a line: Long-term toxicity testing with human liver microtissues, 14 days treatment with 3 re-dosing. The experiment is classed as cell-based. The note with it: 336 h, read-out: IC50 value of toxicity (cell death), dose-response.
Experiment [2] deals with 2D cultures of human hepatocytes. The experiment can be described thus: Toxicity in 2D cultures of human hepatocytes. The experiment is classed as cell-based. The note with it: Hepatocyte, read-out: calculated IC50 value in 2D cultures of human hepatocytes.
Experiment [3] has as its system human liver microtissues. The experiment in a line: Inflammation-mediated toxicity testing with human liver microtissues in presence and absence of LPS. The experiment is classed as cell-based.
Experiment [4] has as its system IL-6 secretion. The experiment can be described thus: Quantification of IL-6 secretion of liver microtissues by ELISA after LPS induction. The experiment is classed as cell-based, human. The note with it: hepatosphere induced for 48 h with 10 µg/ml LPS. (In general: An ELISA detects its analyte on a solid surface through an enzyme-linked reagent.)

pIC50: −log10 of the molar value. Entries after “also recorded” stand apart in the source; their conditions may differ.

As a reminder, the pIC50 is the IC50 on a negative log10 scale, so that one unit is a factor of ten. With `CC(=O)Nc1ccc(O)cc1` [acetaminophen], in experiment [1], the negative logarithm of the IC50 (pIC50) was 3.12. `O=C(O)Cc1ccccc1Nc1c(Cl)cccc1Cl` [diclofenac]: the pIC50 is 3.48 in experiment [2] and 3.75 in experiment [1]. With `N[C@@H]1[C@H]2CN(c3nc4c(cc3F)c(=O)c(C(=O)O)cn4-c3ccc(F)cc3F)C[C@@H]12` [trovafloxacin], the pIC50 in experiment [3] (absence of LPS (−LPS), read-out: IC50 (hepatotoxic threshold) of induced toxicity without LPS) was 3.66; in experiment [3] (presence of LPS (+LPS), read-out: IC50 (hepatotoxic threshold) of induced toxicity in the presence of LPS), 4.15. For lipopolysaccharide [LPS], the “increase in IL-6 secretion” value in experiment [4] is reported as “tenfold increase; also recorded: elevated levels of IL-6 secretion”.
